Paper PMC12598805, “Crystal Structure–Activity Relationship of Some MeO Phenylacrylonitriles: Dual Antimicrobial–Cytotoxic Effects and in Silico Perspectives” (ChemistryOpen, 2025)
In brackets after ≈: the same amount, converted by molar mass.

What was measured:
Format in all cases: cell-based
[1] = tested on: Bacillus subtilis (ATCC-19659); assay: Agar diffusion, zone of inhibition; details: B.subtilis, compounds at 50 mg mL^−1; for zone of inhibition at 50 mg/mL: Bacillus subtilis, ATCC19659
Source text: (§1) The antibacterial and antifungal activities were reported utilizing the method described by the Clinical & Laboratory Standards Institute.^[ [31], [32] ^] Agar diffusion method was used to determine the antimicrobial activity of the synthesized substances. The media used were mueller hinton agar (MHA) for bacteria and sabouraud‐dextrose agar (SDA) for fungi (Merck), as recommended by the manufacturer.
(§2) The synthesized compounds were initially investigated for their antimicrobial activity to elucidate the potential therapeutic utility against various pathogenic microbes using the agar plate diffusion method. The compounds were tested at a concentration of 50 mg mL^−1, and the antibiotics (ampicillin, kanamycin, and amphotericin B) were used at 5 mg mL^−1. […] K.pneumoniae and B.cereus were resistant to ampicillin, while they were susceptible to kanamycin with inhibition values of 30 and 26 mm, respectively. No antimicrobial activity of the compounds was observed against E.faecalis, S.typhimurium, K.pneumoniae, and for the fungus compared to Amphotericin B (20 mm). […]
(§3) ATCC: American Type Culture Collection; NRRL: Northern Regional Research Laboratory The compounds 2(a-c) obtained could only be completely solubilised with dimethyl sulphoxide (DMSO) and the highest possible stock solutions of 50 mg.mL-1 were prepared. To these wells 50 μl of the previously prepared substances were transferred using sterile micropipette tips. For comparison, Ampicillin and kanamycin antibiotics for bacteria and Amphotericin B antibiotics for fungus were used as positive controls and DMSO was used as negative control. The prepared petri plates were kept at +4°C for about 1 hour and then the bacterial cultures were incubated at 37°C for 18-24 hours and mould cultures at 27-30°C for 48-72 hours. The zones formed were measured millimetrically with callipers. The experiments were performed with three repetitions. […]

[2] = tested on: Klebsiella pneumoniae (ATCC-70063); assay: Agar diffusion, zone of inhibition; details: Klebsiella pneumoniae, ATCC70063; K.pneumoniae; compounds at 50 mg mL^−1
Source text: as §1, §2
Klebsiella pneumoniae (ATCC-70063)
as §3

[3] = tested on: Escherichia coli (ATCC 25922); assay: Broth microdilution MIC; details: ATCC25922, E.coli
Procedure: Escherichia coli (ATCC 25922) […]
(§4) ATCC: American Type Culture Collection; NRRL: Northern Regional Research Laboratory The compounds 2(a-c) obtained could only be completely solubilised with dimethyl sulphoxide (DMSO) and the highest possible stock solutions of 50 mg.mL-1 were prepared. […]
(§5) 3.1. Determination of Minimum Inhibition Concentration (MIC)
(§6) The minimum inhibition concentration (MIC) values of the compounds 2(a-c) against the test bacteria used in the study were determined according to the broth microdilution method.[1-2] MHB or SDB was used as test medium and bacterial and yeast suspensions were prepared at 0.5 Mc Farland concentration for each test bacteria. Double layer serial dilutions were prepared in "U" type 96-well microtiter plates. Medium+bacteria suspensions containing only medium in the first row, medium+bacteria in the second row and the final concentrations of the synthesised substances in the other rows between 25 mg.mL-1 and […] were added to the wells with a final volume of 200
(§7) μL. Ampicillin, Kanamycin and Amphotericin B standard antibiotics were used as positive controls.
(§8) Bacteria were incubated at 37±0.1 °C and C. albicans at 30±0.1 °C for 24-48 hours and the lowest concentration without growth was determined as MIC. Tests were performed in two parallel runs and mean values were given as a result. […]

[4] = tested on: Bacillus subtilis (ATCC-19659); assay: Broth microdilution MIC; details: ATCC19659, B.subtilis, read-out: MIC
Procedure: as §4, §5, §6, §7, §8

[5] = tested on: Bacillus cereus (ATCC-10876); assay: Broth microdilution MIC; details: Bacillus cereus, ATCC10876; B.cereus; read-out: MIC
Procedure: Bacillus cereus (ATCC-10876) […]
as §4, §5, §6, §7, §8

[6] = tested on: Micrococcus luteus (NRRL-B-1018); assay: MBC by sub-culture from wells without growth; details: NRRLB1018, M.luteus
Procedure: Micrococcus luteus (NRRL-B-1018) […]
as §4, §5, §6, §7
Bacteria were incubated at 37±0.1 °C and C. albicans at 30±0.1 °C for 24-48 hours and the lowest concentration without growth was determined as MIC. Tests were performed in two parallel runs and mean values were given as a result. In order to estimate “the minimum bactericidal/fungicidal concentrations (MBC/MFC) of the synthesised acrylonitrile derivatives “needed to indicate […] killing of the original inoculum,” 10 μl was taken from the wells with no observed growth and further sub-cultured onto their agar media (MHA and SDA for bacterial and fungal strains, respectively).[3] […]

SMILES	zone of inhibition [1] [mm]	zone of inhibition at 50 mg/mL [1] [mm]	zone of inhibition at 50 mg/mL [2] [mm]	MIC [3] [mg/mL]	MIC [4] [mg/mL]	MIC [5] [mg/mL]	MBC [6] [mg/mL]
COc1ccc(C=C(C#N)c2ccccc2)cc1 [2a, 3‐(4‐methoxyphenyl)‐2‐phenylacrylonitrile]	13 ± 0.71	13	< 6	2.5 (≈ 10.6 mM)	25 (≈ 106 mM)	12.5 (≈ 53.1 mM)	6.25 (≈ 26.6 mM)
COc1ccc(/C=C(\C#N)c2ccc(F)cc2)cc1 [2b]	13 ± 2.12	13	< 6	25 (≈ 98.7 mM)	25 (≈ 98.7 mM)	12.5 (≈ 49.4 mM)	12.5 (≈ 49.4 mM)
COc1ccc(/C=C(\C#N)c2cc(C(F)(F)F)cc(C(F)(F)F)c2)cc1 [2c]	14 ± 0	14	< 6	25 (≈ 67.3 mM)	25 (≈ 67.3 mM)	12.5 (≈ 33.7 mM)	5 (≈ 13.5 mM)
